Measured values: US4425356A, “Lankacidin derivatives used in swine husbandry” (Takeda Chemical Industries, Ltd., priority 1980, dated 1984)
In brackets after ≈: the same amount, converted by molar mass. Like-named read-outs stand apart in the source and are kept apart here.

Tests used:
Treponema hyodysenteriae [1] = assay: in vitro antibacterial activity (MIC, agar dilution method), Test Examples 1-3; format: cell-based; settings: 37° C., 2 days, anaerobic; for MIC: Brachyspira hyodysenteriae, 48 h, read-out: Minimum Inhibitory Concentration
Protocol: Several agents were tested for in vitro antibacterial activity against Treponema hyodysenteriae, the pathogenic bacteria causing swine dysentery, by the method of testing drug sensitivity of Treponema hyodysenteriae (Kashiwazaki et al. Abstracts of Papers presented at the 82nd Meeting of the Japanese Society of Veterinary Science, page 101, 1976).
(1) Strains: These strains belong to Treponema hyodysenteriae isolated
from the bloody mucous faeces of dysenteric pigs in Japan.
(2) Antimicrobial activity assay: Agar dilution method
(3) Inoculum size: A loopful of bacterial suspension (10^6 CFU/ml)
(4) Cultural conditions: GasPak anaerobic system (BBL), 37° C., 2
Typical agents among compound (I) were tested for in vitro antibacterial activity by the same method as in Test Example 1.
The experimental conditions are the same as in Test Example 1 (Table 1).
Agents of compound (I) were tested for in vitro antibacterial activity by the same method as in Test Example 1.

[2] = acute toxicity tests with mice; settings: mouse, in vivo
Source text: The toxicity of compound (I) in animals is very low.

Treponema hyodysenteriae [3] = assay: efficacy in experimental infection in mice with swine dysentery, Test Example 4; format: in vivo; settings: 5 mg/kg/day oral, day 1 to day 4; seven days after infection
Protocol: Lankacidin A, lankacidin C, lankacidin C 8-acetate, lankacidin C 14-propionate, lankacidinol A and lankacidinol were tested for efficacy against swine dysentery in experimental infection in mice with swine dysentery.
The similar experimental infection model of swine dysentery in mice as that described, for example, by Joens et al. in Infection and Immunity, 25, 757-760 (1979), American Journal of Veterinary Research, 41, 1225-1226 (1980) and Veterinary Record, 107, 527-529 (1980) was used. Thus, a field isolate of Treponema hyodysenteriae anaerobically cultivated on the 5% defibrinated horse blood added Trypticase soy agar (BBL) plate was mashed together with the culture medium and diluted two-fold with Trypticase soy broth (BBL). Mice were inoculated intragastrically with this infecting dilution. Each test agent was suspended in 5% gum arabic solution and forcibly administered orally from day 1 to day 4 following infection. Seven days after infection, the cecum was examined for lesions, and the cecum was mashed together with the contents and subjected to Treponema hyodysenteriae counting. Excellent efficacy was produced in each of the drug-administered groups.

[4] = test system: Treponema hyodysenteriae 78/A strain; assay: efficacy against swine dysentery under experimental infection conditions in pigs (drug in feed), Test Examples 5-7; format: in vivo, Landrace pigs
Protocol: Lankacidin C was tested for efficacy against swine dysentery under experimental infection conditions. Thus, twelve 6-week-old Landrace pigs (4 per group) were used. The test drug was admixed to a concentration of 100 ppm with the domestically formulated starter feed for young pigs without antibiotics. The animals were provided with the ration ad libitum. Infection of the pigs was effected by direct intragastrical administration to the SPF pigs of an inoculum prepared by preliminary anaerobic cultivation of the Treponema hyodysenteriae 78/A strain on a 5% horse blood added agar plate, mashing together with the culture medium and admixing with 5% mucin added phosphate buffer. Colonic contents and mucosa were collected from pigs which developed typical signs of swine dysentery, and diluted two-fold with 5% mucin added phosphate buffer. The dilution was used as the final inoculum, and 100 ml of the dilution was directly injected into the stomach of test pigs at the age of 7 weeks (fasted for 24 hours before infection). The pigs were fed for 21 days following infection.
The data are each the mean value per head for the 21day period from
infection to autopsy. Different alphabetic letters on the same line
indicate that there is a significant difference between the data to which
they are attached (P <0.05).
Lankacidin C was tested at concentrations in feed of 100 ppm and lower by the same method as in Test Example 5, with carbadox, a commonly used anti-swine-dysentery agent, for comparison.
The anti-swine-dysentery effects of 10 ppm each of lankacidin A and lankacidin C 14-propionate were examined by the procedure of Test Example 6.

[5] = test system: Treponema hyodysenteriae 78/A strain; assay: therapeutic administration in pigs showing clinical signs of swine dysentery, Test Examples 8-9; format: in vivo; settings: for Condition of feces: Table 9, individual pig
Protocol: This test was conducted under the conditions of so-called therapeutic administration. […] The method of infection was the same as in Test Example 5. […] Simultaneously with showing of the signs, the pigs were provided with a feed containing 50 ppm of lankacidin C. […] After 2 days, the viable count for the pathogen in feces was below the detection limit (10^2 CFU/g).
The condition of feces was rated at one of the following four classes:
.circle. normal; loose; diarrheal; .circleincircle. mucous and bloody
count is below the detection limit (10^2 CFU/g).
The symbol * indicates those days on which the feed containing 50 ppm of
lankacidin C was given.
Lankacidins were tested for therapeutic effects in swine dysentery under therapeutic conditions in the same manner as in Test Example 8. The effects were judged based on the condition of feces.
The condition of feces was rated at one of the following four classes;
The symbol * indicates the days on which the feed containing 50 ppm of th

[6] = 10 ppm in feed, 21-day test period
[7] = 10 ppm in feed, 21 day period, mean per head

CC(=O)OC1C=CC(C)=CCC(O)C=CC(C)=CC(NC(=O)C(C)=O)C2(C)C(=O)OC(C1)C(C)C2=O (centres unmarked) [Lankacidin A, lankacidin A] showed an MIC (Treponema hyodysenteriae [1]; strain 78/A) of 3.13 µg/mL (≈ 6.24 µM), an MIC (Treponema hyodysenteriae [1]; strain CD1 (CD-1)) of 6.25 µg/mL (≈ 12.5 µM) and an MIC (Treponema hyodysenteriae [1]; strain DJ70P1) of 6.25 µg/mL (≈ 12.5 µM). The MIC (Treponema hyodysenteriae [1]; strain MK-2) was 3.13 µg/mL (≈ 6.24 µM), the “Minimum Inhibitory Concentration” value (Treponema hyodysenteriae [1]; strain DJ70P1) was 3.13 µg/mL and the “Minimum Inhibitory Concentration” value (Treponema hyodysenteriae [1]; strain MK-2) was 6.25 µg/mL. For the same compound, the LD50 ([2]; ip, intraperitoneal, read-out: intraperitoneal LD50) was 8000 to 10000 mg/kg, the LD50 ([2]; oral, read-out: oral LD50) was > 10000 mg/kg and the “Number of mice from which the pathogen was detected/number of mice tested” value (Treponema hyodysenteriae [3]) was 1/5. For the same compound, the “Number of mice with cecal lesions/number of mice tested” value (Treponema hyodysenteriae [3]) was 0/5, the “Number of pigs from which the pathogen was detected, in colonic mucosa” value ([4]; 10 ppm in feed) was 0 and the “Number of pigs from which the pathogen was detected, in feces” value ([4]; 10 ppm in feed) was 0. For the same compound, the “Number of pigs showing colonic lesions” value ([4]; 10 ppm in feed) was 0, the “Number of days on which diarrhea was observed” value [4, 6] was 0 days and the “Number of days on which mucous bloody stool was observed” value [4, 6] was 0 days. The “Number of pigs showing signs of infection/number of pigs used” value [4, 6] was 0/4, the Body weight gain [4, 7] was 567 grams/day and the Feed conversion [4, 7] was 1.76. The Feed intake [4, 7] was 21.0 kg, the “Body weight at the time of completion of test” value ([4]; 10 ppm in feed, mean per head) was 22.9 kg and the “effect against swine dysentery (in words)” value ([4]; pig, in vivo) was “distinctly effective against swine dysentery”. For the same compound, the “therapeutic effect in swine dysentery (in words)” value ([5]; 50 ppm in feed) was “therapeutically effective”, the Condition of feces ([5]; 50 ppm in feed days 0-6, day 7) was “.circle” and the Condition of feces ([5]; 50 ppm in feed days 0-6, day 8) was “.circle”. For the same compound, the Condition of feces ([5]; 50 ppm in feed days 0-6, day 9) was “.circle”, the Condition of feces ([5]; 50 ppm in feed days 0-6, day 10) was “.circle” and the Condition of feces ([5]; 50 ppm in feed days 0-6, day 11) was “.circle”. The Condition of feces ([5]; 50 ppm in feed days 0-6, day 12) was “.circle”, the Condition of feces ([5]; 50 ppm in feed days 0-6, day 13) was “.circle” and the Condition of feces ([5]; 50 ppm in feed days 0-6, day 14) was “.circle”. The Condition of feces ([5]; 50 ppm in feed days 0-6, day 15) was “.circle”, the Condition of feces ([5]; 50 ppm in feed days 0-6, day 16) was “.circle” and the Condition of feces ([5]; 50 ppm in feed days 0-6, day 17) was “.circle”. For the same compound, the Condition of feces ([5]; 50 ppm in feed days 0-6, day 18) was “.circle”, the Condition of feces ([5]; 50 ppm in feed days 0-6, day 19) was “.circle” and the Condition of feces ([5]; 50 ppm in feed days 0-6, day 20) was “.circle”. For the same compound, the Condition of feces ([5]; 50 ppm in feed days 0-6, day 21) was “.circle”, the Condition of feces ([5]; 50 ppm in feed, day 0 after manifestation of signs) was “.circleincircle” and the Condition of feces ([5]; 50 ppm in feed, day 1) was “.circle”. For the same compound, the Condition of feces ([5]; 50 ppm in feed, day 2) was “.circle”, the Condition of feces ([5]; 50 ppm in feed, day 3) was “.circle” and the Condition of feces ([5]; 50 ppm in feed, day 4) was “.circle”. The Condition of feces ([5]; 50 ppm in feed, day 5) was “.circle” and the Condition of feces ([5]; 50 ppm in feed, day 6) was “.circle”.
